# Measured values taken from ChEMBL document CHEMBL6182857, “Targeting biofilm formation in Candida albicans with halogenated pyrrolopyrimidine derivatives” (Eur J Med Chem, 2025).
# Activity calls are given as the source filed them. No cut-off for these calls is given here.
# Tests used:
# Candida albicans [1] = assay: Antibiofilm activity against fluconazole-resistant Candida albicans DAY185 assessed as inhibition of biofilm formation at 0.5 ug/ml measured after 24 hrs by crystal violet staining based analysis relative to control; type: functional, organism-based; settings: dose 0.5 µg/ml
# Candida albicans [2] = assay: Antibiofilm activity against fluconazole-resistant Candida albicans DAY185 assessed as inhibition of biofilm formation at 1 ug/ml measured after 24 hrs by crystal violet staining based analysis relative to control; type: functional
# Candida albicans [3] = assay: Additive antibiofilm activity against fluconazole-resistant Candida albicans DAY185 assessed as inhibition of biofilm formation at 10 ug/ml measured after 24 hrs in presence of AMB by crystal violet staining based analysis relative to control; type: functional, organism-based; settings: dose 10.0 µg/ml
# Candida albicans [4] = assay: Downregulation of ALS3 mRNA level in fluconazole-resistant Candida albicans DAY185 assessed as fold decrease at 50 ug/ml incubated for 6 hrs by qRT-PCR analysis relative to control; type: functional; settings: dose 50.0 µg/ml
# Candida albicans [5] = assay: Antibiofilm activity against fluconazole-resistant Candida albicans DAY185 assessed as inhibition of biofilm formation at 20 ug/ml measured after 24 hrs by crystal violet staining based analysis relative to control; type: functional
# Brassica rapa = assay: Toxicity in Brassica rapa assessed as seed germination rate at 10 to 100 ug/ml treated for 4 days relative to control; type: organism-based; settings: in vivo, 96 h, at 10 to 100 µg/mL, dose 10-100 µg/ml, time 4 day
# Candida albicans [6] = assay: Antibiofilm activity against fluconazole-resistant Candida albicans DAY185 assessed as reduction in mean biofilm thickness on bio-compatible PLGA surface coated with compound incubated for 24 hrs by COMSTAT analysis; type: functional, organism-based
# Candida albicans [7] = assay: Inhibition of yeast to hypha transition in fluconazole-resistant Candida albicans DAY185 assessed as decrease in filamentous growth at 10 to 20 ug/ml measured after 24 hrs by SEM analysis; type: functional, organism-based; settings: dose 10-20 µg/ml
# Candida albicans [8] = assay: Additive antibiofilm activity against fluconazole-resistant Candida albicans DAY185 assessed as inhibition of biofilm formation at 10 ug/ml measured after 24 hrs in presence of BTZ by crystal violet staining based analysis relative to control; type: functional, organism-based; settings: dose 10.0 µg/ml
# Candida albicans [9] = assay: Antibiofilm activity against fluconazole-resistant Candida albicans DAY185 assessed as reduction in biofilm mass on bio-compatible PLGA surface coated with compound incubated for 24 hrs by COMSTAT analysis; type: functional, organism-based
# [10] = Toxicity in Caenorhabditis elegans assessed as nematode survival at 100 ug/ml treated for 7 days; settings: 168 h, dose 100 µg/ml, time 7 day
# Candida albicans [11] = assay: Antibiofilm activity against fluconazole-resistant Candida albicans DAY185 assessed as inhibition of biofilm formation at 10 to 20 ug/ml measured after 24 hrs by 2D/3D imaging analysis relative to control; type: functional; settings: dose 10-20 µg/ml
# Candida albicans [12] = assay: Inhibition of yeast to hypha transition in fluconazole-resistant Candida albicans DAY185 assessed as decrease in hyphal growth at 5 to 20 ug/ml measured after 24 hrs by SEM analysis; type: functional, organism-based; settings: dose 5-20 µg/ml
# Candida albicans [13] = assay: Upregulation of YWP1 mRNA level in fluconazole-resistant Candida albicans DAY185 assessed as fold increase at 50 ug/ml incubated for 6 hrs by qRT-PCR analysis relative to control; type: functional; settings: dose 50.0 µg/ml
# Candida albicans [14] = assay: Antibiofilm activity against fluconazole-resistant Candida albicans DAY185 assessed as reduction in biofilm thickness on bio-compatible PLGA surface coated with compound at 10 to 20 ug/ml incubated for 24 hrs by CLSM analysis; type: functional, organism-based; settings: dose 10-20 µg/ml
# Candida albicans [15] = assay: Antibiofilm activity against fluconazole-resistant Candida albicans DAY185 assessed as reduction in overall biofilm mass on bio-compatible PLGA surface coated with compound at 10 to 20 ug/ml incubated for 24 hrs by CLSM analysis; type: functional, organism-based; settings: dose 10-20 µg/ml
# [Candida] auris [16] = Antibiofilm activity against Candida auris KCTC 17809 assessed as inhibition of biofilm formation by crystal violet staining based analysis; type: functional, organism-based; settings: Candidozyma auris
# Candida albicans [17] = assay: Upregulation of CDR11 mRNA level in fluconazole-resistant Candida albicans DAY185 assessed as fold increase at 50 ug/ml incubated for 6 hrs by qRT-PCR analysis relative to control; type: functional; settings: dose 50.0 µg/ml
# Candida albicans [18] = assay: Downregulation of HWP1 mRNA level in fluconazole-resistant Candida albicans DAY185 assessed as fold decrease at 50 ug/ml incubated for 6 hrs by qRT-PCR analysis relative to control; type: functional; settings: dose 50.0 µg/ml
# Candida albicans [19] = assay: Inhibition of yeast to hypha transition in fluconazole-resistant Candida albicans DAY185 assessed as decrease in cell aggregation at 10 to 20 ug/ml measured after 24 hrs by SEM analysis; type: functional, organism-based; settings: dose 10-20 µg/ml
# Candida albicans [20] = assay: Inhibition of yeast to hypha transition in fluconazole-resistant Candida albicans DAY185 assessed as decrease in hyphal adhesion at 5 to 20 ug/ml measured after 24 hrs by SEM analysis; type: functional, organism-based; settings: dose 5-20 µg/ml
# Candida albicans [21] = assay: Inhibition of yeast to hypha transition in fluconazole-resistant Candida albicans DAY185 assessed as decrease in germ tube formation at 10 to 20 ug/ml measured after 24 hrs by SEM analysis; type: functional, organism-based; settings: dose 10-20 µg/ml
# Candida albicans [22] = assay: Antibiofilm activity against fluconazole-resistant Candida albicans DAY185 assessed as reduction in substratum coverage on bio-compatible PLGA surface coated with compound at 20 ug/ml incubated for 24 hrs by COMSTAT analysis; type: functional, organism-based; settings: dose 20.0 µg/ml
# Candida albicans [23] = assay: Antibiofilm activity against fluconazole-resistant Candida albicans DAY185 assessed as inhibition of biofilm formation on bio-compatible PLGA surface coated with compound at 10 to 20 ug/ml incubated for 24 hrs by CLSM analysis; type: functional, organism-based; settings: dose 10-20 µg/ml
# [Candida] auris [24] = Antibiofilm activity against Candida auris KCTC 17810 assessed as inhibition of biofilm formation by crystal violet staining based analysis; type: functional, organism-based; settings: Candidozyma auris
# Candida albicans [25] = assay: Antibiofilm activity against fluconazole-resistant Candida albicans DAY185 assessed as inhibition of biofilm formation at 50 ug/ml measured after 24 hrs by crystal violet staining based analysis relative to control; type: functional
# Candida albicans [26] = assay: Downregulation of UME6 mRNA level in fluconazole-resistant Candida albicans DAY185 assessed as fold decrease at 50 ug/ml incubated for 6 hrs by qRT-PCR analysis relative to control; type: functional; settings: dose 50.0 µg/ml
# Candida albicans [27] = assay: Antibiofilm activity against Candida albicans ATCC 10231 assessed as inhibition of biofilm formation by crystal violet staining based analysis; type: functional, organism-based
# Candida albicans [28] = assay: Antibiofilm activity against Candida albicans KCCM 12552 assessed as inhibition of biofilm formation by crystal violet staining based analysis; type: functional, organism-based
# Candida albicans [29] = assay: Downregulation of ECE1 mRNA level in fluconazole-resistant Candida albicans DAY185 assessed as fold decrease at 50 ug/ml incubated for 6 hrs by qRT-PCR analysis relative to control; type: functional; settings: dose 50.0 µg/ml
# Candida albicans [30] = assay: Antibiofilm activity against fluconazole-resistant Candida albicans DAY185 assessed as inhibition of biofilm formation at 5 ug/ml measured after 24 hrs by crystal violet staining based analysis relative to control; type: functional, organism-based; settings: dose 5.0 µg/ml
smiles,measurement,setting,value
C[C@@H]1[C@H](O)[C@@H](C)/C=C/C=C/C=C/C=C/C=C/C=C/C=C/[C@H](O[C@@H]2O[C@H](C)[C@@H](O)[C@H](N)[C@@H]2O)C[C@@H]2O[C@](O)(C[C@@H](O)C[C@@H](O)[C@H](O)CC[C@@H](O)C[C@@H](O)CC(=O)O[C@H]1C)C[C@H](O)[C@H]2C(=O)O [AMPHOTERICIN B],inhibition,Candida albicans [1],Active
same,inhibition at 1 µg/mL,Candida albicans [2],96%
Clc1ncnc2[nH]cc(I)c12,inhibition,Candida albicans [3],Active
same,fold change (FC),Candida albicans [4],145
same,inhibition at 20 µg/mL,Candida albicans [5],> 85%
same,Activity,Brassica rapa,> 90%
same,Activity,Candida albicans [6],Dose-dependent-effect; Nearly Undetectable Levels Were Observed At 20 Ug/Ml
same,inhibition,Candida albicans [7],Active
same,inhibition,Candida albicans [8],Active
same,Activity,Candida albicans [9],Dose-dependent-effect; Nearly Undetectable Levels Were Observed At 20 Ug/Ml
same,Activity,[10],Toxic
same,inhibition,Candida albicans [11],Active; Significant Effect Was Observed At 20 Ug/Ml
same,inhibition,Candida albicans [12],Active
same,fold change (FC),Candida albicans [13],14
same,Activity,Candida albicans [14],Active; More Pronounced Effects Were Observed At Higher Concentration
same,Activity,Candida albicans [15],Active; More Pronounced Effects Were Observed At Higher Concentration
same,inhibition,[Candida] auris [16],Dose-dependent-effect
same,fold change (FC),Candida albicans [17],13
same,fold change (FC),Candida albicans [18],55
same,inhibition,Candida albicans [19],Active
same,inhibition,Candida albicans [20],Active
same,inhibition,Candida albicans [21],Active
same,Activity,Candida albicans [22],Active
same,inhibition,Candida albicans [23],Active
same,inhibition,[Candida] auris [24],Dose-dependent-effect
same,inhibition at 50 µg/mL,Candida albicans [25],> 95%
same,fold change (FC),Candida albicans [26],15
same,inhibition,Candida albicans [27],Dose-dependent-effect
same,inhibition,Candida albicans [28],Dose-dependent-effect
same,fold change (FC),Candida albicans [29],267
Clc1ccc(CCC(Cn2ccnc2)Sc2c(Cl)cccc2Cl)cc1 (stereo not drawn) [BUTOCONAZOLE],inhibition,Candida albicans [30],Active
same,inhibition at 1 µg/mL,Candida albicans [2],56%
CC(=O)N1CCN(c2ccc(OCC3COC(Cn4ccnc4)(c4ccc(Cl)cc4Cl)O3)cc2)CC1 (stereo not drawn) [KETOCONAZOLE],inhibition at 1 µg/mL,Candida albicans [2],< 12%
